Measured values: patent US6140330A, “Thiazole derivative” (Otsuka Pharmaceutical Company, Limited, priority 1996, dated 2000)

What was measured:
protein kinase C (PKC) = experiment: Protein Kinase C (PKC) Inhibitory Activity; type: biochemical; details: rat brain PKC, H1 histone substrate, 10 μM [γ-32P]ATP, 30° C., 30 minutes
Method: (1) Protein Kinase C (PKC) Inhibitory Activity
Method for determining PKC activity:
The purification of PKC using rat's brain soluble fractions was carried out by a method of Kikkawa et al. (cf. Ushio Kikkawa, Yoshimi Takai, Ryoji Minakuchi, Sinichi Inohara and Yasutomi Nishizuka: The Journal of Biological Chemistry, vol. 257, No. 22, pp. 13341-13348 (1982)). PKC activity was determined by the transfer of radio activity from the [γ-^32 P] adenosine triphosphate (ATP) to H1 histone derived from calf thymus in the presence of 20 mM Tris-HCl buffer (pH 7.5), H1 histone derived from calf thymus (200 μg/ml), 10 μM [γ-^32P]ATP, 5 mM magnesium acetate, 8 μg/ml phosphatidyl serine, 2 μg/ml diacylglycerol and 0.3 mM Ca^2+. The test compound was dissolved in dimethylformamide, and the test compound solution was added to the assay system so that the final concentration thereof was adjusted to 0.8%. The reaction mixture was incubated at 30° C. for 30 minutes, and the reaction was quenched with 25% trichloroacetic acid. The acid-insoluble protein was collected on a nitrocellulose membrane by suction filtration. The radio activity of ^32 P was determined by scintillation counter. The PKC inhibitory activity of the test compounds was expressed by IC50, which is a concentration of the test compound to be required to reduce the PKC activity by 50%.

Mouse Collagen Arthritis = type: in vivo; details: orally once a day
Method: (2) Mouse Collagen Arthritis
Bovine II-type collagen (provided by Collagen Gijyutsu Kensyukai) (0.1%) was emulsified with Complete Fleund's adjuvant (CFA) (50%) (manufactured by DIFCO, Ltd.), and the emulsion thus obtained was injected intracutaneously to mice at the tail (primary sensitization). Three weeks later, bovine II-type collagen (0.1%) was injected intraperitoneally again to the mice (secondary sensitization). Three weeks later, the swelling of limbs of the mice was observed, and evaluated by four-degree as 0 to 3 each limb. The degree (0 to 3) each limb was added, and the results were used a score of the arthritis. That is, the maximum degree is 12 (degree 3×4 limb). The test compound was administered orally to the mice once a day, which started after two weeks from the primary sensitization.

[1] = Phorbol Ester (TPA)-induced Mouse Auricle Edema, Acanthosis Model; type: in vivo; details: mouse (ICR); for increase in the thickness of auricle: after 24 hours, control 215±40 μm, mean±s.e.
Method: (5) Phorbol Ester (TPA)-induced Mouse Auricle Edema, Acanthosis Model
A 200 μg/ml phorbol ester (TPA) (10 μl) was applied to the one side to the ear of a female mouse (ICR). Twenty-four hours later, the thickness of the auricle of the mouse was determined with using a dialthickness gage, and the increase in the thickness of auricle was calculated. A test compound was dissolved in acetone, and the solution of a test compound was applied to the both sides of the ear 30 minutes before the application of TPA.
The compound of Example 88 was applied to the ear at a dose of 20 μl of 0.3% or 1% solution. The increase in the thickness of auricle in the control group is 215±40 μm (mean±s.e.) after 24 hours, while 87±53 μm (mean±s.e.) in the group treated with the compound of Example 88 in 0.3%, and 67±23 μm (mean±s.e.) in the group treated with the compound of Example 88 in 1%.

anti-DNA antibody = experiment: Mouse cGVHD (chronic graft-versus-host disease model), anti-DNA antibody in blood by ELISA; type: in vivo; details: mice; for amount of anti-DNA antibody in the blood: mean±s.e.
Method: (3) Mouse cGVHD (chromic Graft-versus-host disease model)
Female mice (DBA/2NCrj) were subjected to an operation of cervical vertebra dislocation, and the spleen was taken out to give the spleen cells preparation. The preparation were adjusted to 37.5×10^7 cells/ml, and administered to the BDF1 female mice on the tail vein at a dose of 200 μl per a mouse. Two weeks later, the blood was collected in the absence of heparin, and anti-DNA antibody therein was determined by ELISA.
The compound of Example 182 was administered orally to the mice at a dose of 30 to 50 mg/kg once a day for two weeks, and the effect of the test compound on cGVHD was determined.
The amount of anti-DNA antibody in the blood was determined with OD405. The amounts of anti-DNA antibody were 0.348±0.111 (mean±s.e.) in the control group, 0.255±0.062 (mean±s.e.) in the group treated with the compound of Example 182 at a dose of 30 mg/kg, and 0.094±0.026 (mean±s.e.) in the group treated with the compound of Example 182 at a dose of 50 mg/kg.
Further, the compound of Example 100 was also administered orally to the mice at 30 mg/kg once a day for two weeks, and the effect of the compound on cGVHD was also determined.
The amount of anti-DNA antibody in the blood was determined with OD405. The amounts of anti-DNA antibody were 0.258±0.084 (mean±s.e.) in the control group, and 0.177±0.061 (mean±s.e.) in the group treated with the compound of Example 100 at a dose of 30 mg/kg.

[2] = Rat Kidney Ischemic Re-perfusion Model; type: in vivo; details: for amount of creatine in the blood / amount of urea nitrogen in the blood: in mg/dL (unit assumed)
Method: (4) Rat Kidney Ischemic Re-perfusion Model
The right kidney of a SD male rat was taken out, and the left kidney artery was clumped, and then, re-perfused to give a kidney ischemic re-perfusion model. The effect of the compounds of Examples 71, 89 and 100 on the kidney ischemic re-perfusion model was estimated.
The compound of Example 71 was administered intravenously to the rat at a dose of 3 mg/kg 5 minutes before the ischemic. Twenty-four hours later, the blood was collected from the tail vein, and the amounts of creatine and urea nitrogen were determined. The amount of creatine in the blood was 2.19±0.21 (mean±s.e.) in the control group; 1.4±0.11 (mean±s.e.) in the group treated with the compound of Example 71, and the amount of urea nitrogen in the blood was 78.8±5.6 (mean s.e.) in the control group, and 54.1±5.0 (mean±s.e.) in the group treated with the compound of Example 71.
The compound of Example 89 was administered intravenously to the rat at a dose of 3 mg/kg 5 minutes before the ischemic and the re-perfusion. Forty-eight hours later, the blood was collected from the tail vein, and the amounts of creatine and urea nitrogen were determined. The amount of creatine in the blood was 4.31±0.53 (mean±s.e.) in the control group; 2.34±0.46 (mean±s.e.) in the group treated with the compound of Example 89, and the amount of urea nitrogen in the blood was 155.1±15.4 (mean±s.e.) in the control group, and 99.1±16.0 (mean±s.e.) in the group treated with the compound of Example 89.
The compound of Example 100 was administered orally to the rat at a dose of 30 mg/kg one hour before the ischemic. Forty-eight hours later, the blood was collected from the tail vein, and the amounts of creatine and urea nitrogen were determined. The amount of creatine in the blood was 2.48±0.59 (mean±s.e.) in the control group; 1.53±0.20 (mean±s.e.) in the group treated with the compound of Example 100, and the amount of urea nitrogen in the blood was 91.3±20.1 (mean±s.e.) in the control group, and 63.1±10.3 (mean±s.e.) in the group treated with the compound of Example 100.

[3] = Mouse Atopic Dermatitis Model (TNCB-induced increase in auricle thickness); type: in vivo; details: mice (Balb/c), once a day for two weeks
Method: (6) Mouse Atopic Dermatitis Model:
1% […] (TNCB), (10 μl) was applied to each side of the ear of female mice (Balb/c), once every two days for 24 days. Twenty-four days later, the mice were grouped, and the auricle thickness of the mouse was determined by using a dial thickness gage, and the increase in the thickness of auricle was calculated. The compounds of Examples 88 and 89 were dissolved in acetone in a concentration of 1%. The compound of Example 182 was dissolved in a mixture of acetone:methanol in a concentration of 0.75%. Twenty-four days after the beginning of the experiment, the solution of a test compound was applied to each side of the ear 30 minutes before and after the application of TNCB, once a day for two weeks.

## Cc1cc(OCC(=O)Nc2nc3ccccc3s2)ccc1C(=O)/C=C/C(=O)N1CCC(N2CCCN(C)CC2)CC1 [Example 197]
Protein kinase C (PKC)
  IC50: 300 nM
Mouse Collagen Arthritis; 50 mg/kg
  score of arthritis in comparison with the control mice: significantly reduced

## COc1cc(C(=O)/C=C/C(=O)N2CCC(N3CCN(C)CC3)CC2)ccc1OCC(=O)Nc1nc2ccccc2s1 [Example 88]
Protein kinase C (PKC)
  IC50: 100 nM
[1]; topical 20 μl of 0.3% or 1% solution
  increase in auricle thickness compared with the control group: significantly reduced
[1]; topical 20 μl of 0.3% solution
  increase in the thickness of auricle: 87±53 μm
[1]; topical 20 μl of 1% solution
  increase in the thickness of auricle: 67±23 μm

## Cc1c(OCC(=O)Nc2nc3ccccc3s2)ccc(C(=O)/C=C/C(=O)N2CCC(N3CCCN(C)CC3)CC2)c1C [Example 192]
Protein kinase C (PKC)
  IC50: 800 nM
Mouse Collagen Arthritis; 50 mg/kg
  score of arthritis in comparison with the control mice: significantly reduced

## COc1cc(C(=O)/C=C/C(=O)N2CCC(N3CCCN(C)CC3)CC2)ccc1OCC(=O)Nc1nc2ccccc2s1 [Example 100]
Protein kinase C (PKC)
  IC50: 300 nM
anti-DNA antibody; orally 30 mg/kg once a day for two weeks
  anti-DNA antibody in the blood compared with the control group: reduced the anti-DNA antibody in the blood
anti-DNA antibody; orally 30 mg/kg once a day for two weeks, control 0.258±0.084
  amount of anti-DNA antibody in the blood: 0.177±0.061 OD405
[2]; orally 30 mg/kg one hour before the ischemic, 48 hours later
  amounts of both of creatine and urea nitrogen compared with the control group: reduced
[2]; orally 30 mg/kg one hour before the ischemic, 48 hours later, control 2.48±0.59, mean±s.e.
  amount of creatine in the blood: 1.53±0.20
[2]; orally 30 mg/kg one hour before the ischemic, 48 hours later, control 91.3±20.1, mean±s.e.
  amount of urea nitrogen in the blood: 63.1±10.3

## COc1cc(OCC(=O)Nc2nc3ccccc3s2)ccc1C(=O)/C=C/C(=O)N1CCC(N2CCCN(C)CC2)CC1 [Example 182]
Protein kinase C (PKC)
  IC50: 80 nM
Mouse Collagen Arthritis; 30 to 50 mg/kg
  score of arthritis in comparison with the control mice: significantly reduced
anti-DNA antibody; orally 30 mg/kg once a day for two weeks, control 0.348±0.111
  amount of anti-DNA antibody in the blood: 0.255±0.062 OD405
anti-DNA antibody; orally 50 mg/kg once a day for two weeks, control 0.348±0.111
  amount of anti-DNA antibody in the blood: 0.094±0.026 OD405
anti-DNA antibody; orally 30 to 50 mg/kg once a day for two weeks
  anti-DNA antibody in the blood compared with the control group: reduced the anti-DNA antibody in the blood dose-dependently
[3]; topical 0.75% in acetone:methanol
  inhibition of the increase in the auricle thickness: about 25%

## CN1CCN(CC2CN(C(=O)/C=C/C(=O)c3ccc(OCC(=O)Nc4nc5ccccc5s4)c(F)c3)CCO2)CC1 (stereo not shown) [Example 71]
Protein kinase C (PKC)
  IC50: 800 nM
[2]; i.v. 3 mg/kg 5 minutes before the ischemic, 24 hours later
  amounts of both of creatine and urea nitrogen compared with the control group: significantly reduced
[2]; i.v. 3 mg/kg 5 minutes before the ischemic, 24 hours later, control 2.19±0.21, mean±s.e.
  amount of creatine in the blood: 1.4±0.11
[2]; i.v. 3 mg/kg 5 minutes before the ischemic, 24 hours later, control 78.8±5.6, mean±s.e.
  amount of urea nitrogen in the blood: 54.1±5.0

## O=C(COc1ccc(C(=O)/C=C/C(=O)N2CCN(O)CC2)cc1C(F)(F)F)Nc1nc2ccccc2s1 [Example 160]
Protein kinase C (PKC)
  IC50: 600 nM
Mouse Collagen Arthritis; 50 mg/kg
  score of arthritis in comparison with the control mice: significantly reduced

## COc1cc(C(=O)/C=C/C(=O)N2CCOC(CN3CCN(C)CC3)C2)ccc1OCC(=O)Nc1nc2ccccc2s1 (stereo not shown) [Example 89]
Protein kinase C (PKC)
  IC50: 300 nM
[2]; i.v. 3 mg/kg 5 minutes before the ischemic and the re-perfusion, 48 hours later
  amounts of both of creatine and urea nitrogen compared with the control group: significantly reduced
[2]; i.v. 3 mg/kg 5 minutes before the ischemic and the re-perfusion, 48 hours later, control 4.31±0.53, mean±s.e.
  amount of creatine in the blood: 2.34±0.46
[2]; i.v. 3 mg/kg 5 minutes before the ischemic and the re-perfusion, 48 hours later, control 155.1±15.4, mean±s.e.
  amount of urea nitrogen in the blood: 99.1±16.0
[3]; topical 1% in acetone
  inhibition of the increase in the auricle thickness: about 25%
